Legend:
[1] = test system: MYC mRNA, MV4:11 (AML) or Raji (Burkitt's lymphoma) cells; test: cMyc RNA quantification assay (QuantiGene); format: cell-based; conditions: MV4:11 or Raji cells, 4 h, MYC mRNA normalized to DMSO
Description: cMyc RNA Quantification Assay (QuantiGene® Assay):
MV4:11 (AML) or Raji (Burkitt's lymphoma) cells were seeded in a 96-well plate and incubated in the presence of various concentrations of compounds for 4 h. Relative mRNA levels were quantitated by using QuantiGene 2.0 assay (Affymetrix) according to the manufacturer's recommendation. Signals were detected by using an Envision plate reader (Perkin-Elmer). Biological duplicates were averaged and normalized to vehicle (DMSO) control to calculate percent MYC mRNA levels.

BRD4(BD1) = molecular target: T1, BRD4(BD1) (Homo sapiens, UniProt O60885); test: BRD4 AlphaLisa binding assay; conditions: BRD4(BD1) 30 nM, biotinylated H4-tetraacetyl peptide 200 nM, read-out: AS IC50
T1 construct: His; made in house
Description: IC50 Measurements for Inhibitors Using BRD4 AlphaLisa Binding Assay
Specifically, in a 384 well ProxiPlate BRD4(BD1) (30 nM final) was combined with peptide (200 nM final) in 40 mM HEPES (pH 7.0), 40 mM NaCl, 1 mM DTT, 0.01% (w/v) BSA, and 0.008% (w/v) Brij-35 either in the presence of DMSO (final 1.2% DMSO) or compound dilution series in DMSO. After 20 minute incubation at room temperature Alpha streptavidin donor beads and AlphaLisa anti-Flag acceptor beads were added to a final concentration of 10 ug/mL each. After three hours equilibration plates were read on an Envision instrument and IC50s calculated using a four parameter non-linear curve fit.

[2] = test system: IL-6 secretion, THP-1 cells; test: Cell-based IL-6 quantification assay (ELISA, Mesoscale) in LPS-stimulated THP-1 cells; conditions: Homo sapiens, LPS 4 μg/mL, 16 h, ELISA value/CellTiter-Glo ratio
Description: Cell-Based IL-6 Quantification Assay (ELISA, Mesoscale Assay):
100,000 THP-1 cells were seeded in RPMI1640-10% FBS in 96-well plates. LPS (E. Coli Invitrogen) in RPMI-10% FBS at a final concentration of 4 μg/mL was added to the wells and the cells are then incubated in the presence of various concentrations of compounds for 16 h. Plates are spun ([…], 5 min), an aliquot of 25 uL supernatant is transferred in to an ELISA plate (Mesoscale technology, MSD) and the detection of IL-6 is performed using manufacturer's instructions. The amount of cells in each well is assessed using CellTiter-Glo® (Promega). The ratio of ELISA value/CellTiter-Glo value is used to calculate the percent of inhibition of IL-6 secretion.

`Cc1noc2c1-c1cc(C(N)=O)ccc1N(c1ccc(C#N)cc1)CC2` [Compound 126, 6-(4-cyanophenyl)-1-methyl-5,6-dihydro-4H-benzo[b]isoxazolo[4,5-d]azepine-9-carboxamide] showed an EC50 [1] of 1790 nM, an IC50 (BRD4(BD1)) of 1410 nM and an IC50 [2] of 5280 nM.

With `Cc1noc2c1-c1cc(-c3cnn(C)c3)ccc1N(c1ccc(C#N)cc1)CC2` [Compound 114] the EC50 [1] was > 4000 nM, the IC50 (BRD4(BD1)) was 3800 nM and the IC50 [2] was > 15000 nM.

`Cc1noc2c1-c1ccc(-c3cnn(C)c3)cc1N(c1ccc(C#N)cc1)C(=O)C2` [Compound 135, 4-(1-methyl-8-(1-methyl-1H-pyrazol-4-yl)-5-oxo-4H-benzo[b]isoxazolo[4,5-d]azepin-6(5H)-yl)benzonitrile] gave an EC50 [1] of 1320 nM, an IC50 (BRD4(BD1)) of 490 nM and an IC50 [2] of 650 nM.

`CCC1CN(c2ccc(C#N)cc2)c2cc(-c3cnn(C)c3)ccc2-c2c(C)noc21` (stereo not drawn) [Compound 121] was tested, and the EC50 [1] was 460 nM, the IC50 (BRD4(BD1)) was 80 nM and the IC50 [2] was 150 nM.

In the case of `Cc1noc(C)c1-c1ccc2c(c1)N(c1ccc(C#N)cc1)CCc1onc(C)c1-2` [Compound 111], the EC50 [1] is reported as 3330 nM, the IC50 (BRD4(BD1)) is reported as 300 nM and the IC50 [2] is reported as > 1000 nM.

`Cc1onc2c1-c1ccccc1N(c1ccc(Cl)cc1)CC2` [Compound 136, 6-(4-chlorophenyl)-1-methyl-5,6-dihydro-4H-benzo[b]isoxazolo[4,3-d]azepine] was tested, and the EC50 [1] was > 4000 nM, the IC50 (BRD4(BD1)) was 4770 nM and the IC50 [2] was 7700 nM.

`Cc1noc2c1-c1ccc(-c3cnn(C)c3)cc1N(c1ccc(C#N)cc1)CC2CCO` (stereo not drawn) [Compound 138, 4-(4-(2-hydroxyethyl)-1-methyl-8-(1-methyl-1H-pyrazol-4-yl)-4H-benzo[b]isoxazolo[4,5-d]azepin-6(5H)-yl)benzonitrile] gave an EC50 [1] of 310 nM, an IC50 (BRD4(BD1)) of 80 nM and an IC50 [2] of 340 nM.

`Cc1noc2c1-c1ccc(-c3ccc(=O)n(C)c3)cc1N(c1ccc(C#N)cc1)CC2` [Compound 117] showed an EC50 [1] of 610 nM, an IC50 (BRD4(BD1)) of 40 nM and an IC50 [2] of 150 nM.

`Cc1noc2c1-c1ccc(-c3ccc(C(=O)O)cc3)cc1N(c1ccc(C#N)cc1)CC2` [Compound 115] gave an EC50 [1] of 2120 nM, an IC50 (BRD4(BD1)) of 30 nM and an IC50 [2] of 530 nM.

`Cc1noc2c1-c1ccc(-c3ccc(=O)n(C)c3)cc1N(c1ccc(C#N)cc1)CC2C` (stereo not drawn) [Compound 125] was tested, and the EC50 [1] was 170 nM, the IC50 (BRD4(BD1)) was 40 nM and the IC50 [2] was 90 nM.

In the case of `Cc1cccc2c1N(Cc1ccccc1)CCc1onc(C)c1-2` [Compound 131, 6-benzyl-1,7-dimethyl-5,6-dihydro-4H-benzo[b]isoxazolo[4,5-d]azepine], the EC50 [1] is reported as > 4000 nM, the IC50 (BRD4(BD1)) is reported as 20700 nM and the IC50 [2] is reported as 8500 nM.

For `Cc1ccc2c(c1)-c1c(C)noc1CCN2c1ccc(C#N)cc1` [Compound 106], the EC50 [1] was 1980 nM, the IC50 (BRD4(BD1)) was 230 nM and the IC50 [2] was > 1000 nM.

For `Cc1noc2c1-c1ccc(-c3ccc(N)nc3)cc1N(c1ccc(C#N)cc1)CC2CC(=O)N(C)C` (stereo not drawn) [Compound 139, 2-(8-(6-aminopyridin-3-yl)-6-(4-cyanophenyl)-1-methyl-5,6-dihydro-4H-benzo[b]isoxazolo[4,5-d]azepin-4-yl)-N,N-dimethylacetamide], the EC50 [1] was > 4000 nM, the IC50 (BRD4(BD1)) was 1000 nM and the IC50 [2] was > 1000 nM.

With `Cc1noc2c1-c1ccc(-c3cnn(C)c3)cc1N(c1ccc(C#N)cc1)CC2CC(N)=O` (stereo not drawn) [Compound 137, 2-(6-(4-cyanophenyl)-1-methyl-8-(1-methyl-1H-pyrazol-4-yl)-5,6-dihydro-4H-benzo[b]isoxazolo[4,5-d]azepin-4-yl)acetamide] the EC50 [1] was 1840 nM, the IC50 (BRD4(BD1)) was 420 nM and the IC50 [2] was > 1000 nM.

`Cc1noc2c1-c1ccc(-c3cnn(C)c3)c(C)c1N(c1ccc(C#N)cc1)CC2C` (stereo not drawn) [Compound 118] gave an EC50 [1] of 830 nM, an IC50 (BRD4(BD1)) of 160 nM and an IC50 [2] of 520 nM.

`Cc1noc2c1-c1ccc(-c3cnn(C)c3)cc1N(c1ccc(C#N)cc1)CC2C` (stereo not drawn) [Compound 124] showed an EC50 [1] of 260 nM, an IC50 (BRD4(BD1)) of 40 nM and an IC50 [2] of 120 nM.

With `Cc1noc(C)c1-c1ccc2c(c1)-c1c(C)noc1CCN2c1ccc(C#N)cc1` [Compound 113] the EC50 [1] was > 4000 nM, the IC50 (BRD4(BD1)) was 8900 nM and the IC50 [2] was 7400 nM.

`Cc1noc2c1-c1ccc(-c3cnn(C)c3)cc1N(c1ccc(C(N)=O)cc1)CC2` [Compound 119] gave an EC50 [1] of 460 nM, an IC50 (BRD4(BD1)) of 150 nM and an IC50 [2] of 610 nM.

For `Cc1noc2c1-c1ccc(-c3cnn(C)c3)cc1N(c1ccc(C#N)cc1)CC2` [Compound 110], the EC50 [1] was 780 nM, the IC50 (BRD4(BD1)) was 80 nM and the IC50 [2] was > 1000 nM.

With `Cc1noc2c1-c1ccc(Cl)cc1N(S(=O)(=O)c1ccccc1)CC2` [Compound 133, 8-chloro-1-methyl-6-(phenylsulfonyl)-5,6-dihydro-4H-benzo[b]isoxazolo[4,5-d]azepine] the EC50 [1] was > 4000 nM, the IC50 (BRD4(BD1)) was > 4000 nM and the IC50 [2] was > 1000 nM.

In the case of `Cc1noc2c1-c1ccc(-c3cncnc3)cc1N(c1ccc(C#N)cc1)CC2` [Compound 109], the EC50 [1] is reported as 2040 nM, the IC50 (BRD4(BD1)) is reported as 350 nM and the IC50 [2] is reported as > 1000 nM.

`Cc1noc2c1-c1ccccc1N(Cc1ccccc1)CC2` [Compound 130, 6-benzyl-1-methyl-5,6-dihydro-4H-benzo[b]isoxazolo[4,5-d]azepine] was tested, and the EC50 [1] was > 4000 nM, the IC50 (BRD4(BD1)) was 12900 nM and the IC50 [2] was 5900 nM.

`Cc1noc2c1-c1ccc(-c3ccc(N)nc3)cc1N(c1ccc(C#N)cc1)CC2C` (stereo not drawn) [Compound 123] was tested, and the EC50 [1] was 200 nM, the IC50 (BRD4(BD1)) was 40 nM and the IC50 [2] was 80 nM.

Reference: US9624244B2, “Benzo [B] isoxazoloazepine bromodomain inhibitors and uses thereof” (Constellation Pharmaceuticals, Inc., priority 2012, dated 2017)
